Reference: patent US6291247A, “Methods of screening for factors that disrupt neurotrophin conformation and reduce neurotrophin biological activity” (priority 1996, dated 2001)
Bridges are numbered along the chain shown (N, C = ends). Where no end group is shown, it is not given here.

What was measured:
NGF [1] = biological target: T1, NGF (Mus musculus, UniProt P01139); assay: Cross-linking of NGF protomers in a cell-free system (Example 6); type: biochemical; details: R11 analogues, concentration not given
T1 construct: homodimer
T1 sequence (P01139 122-239): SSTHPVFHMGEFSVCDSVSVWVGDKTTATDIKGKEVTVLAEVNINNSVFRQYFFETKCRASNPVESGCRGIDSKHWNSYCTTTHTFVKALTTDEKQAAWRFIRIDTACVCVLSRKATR

p75^NTR and TrkA [2] = biological target: T2, p75^NTR and TrkA (Mus musculus, UniProt P01139); assay: Binding of 125I-NGF to PC12 cells (p75NTR + TrkA); parameters: species or system rat; details: for Total Binding to PC12 cells: 100 μM, 125I-NGF, 120 min
T2 construct: these cells express both NGF receptor types; endogenous in cells; host or cells: PC12 rat pheochromocytoma cells
T2 sequence (P01139 122-239): as above
Experimental: (§1) PC12 cells were grown in RPMI with 10% heat inactivated donor horse serum and 5% fetal calf serum. […] The tubes were incubated for 2 hr at 4° C. and 100 μl aliquots (providing triplicate data points for each sample) were transferred to 400 μl microcentrifuges containing 200 μl of 10% glycerol in HKR. Tubes were centrifuged for 2 minutes at 5,000 rpm, the tip containing the cell pellet cut off and radioactivity bound to the cells was determined.

p75^NTR and TrkA [3] = tested on: T3, p75^NTR and TrkA; assay: Binding of 125I-NGF to PC12 cells (p75NTR + TrkA); parameters: species or system rat
T3 construct: these cells express both NGF receptor types; endogenous in cells; host or cells: PC12 rat pheochromocytoma cells
T3 sequence (P01139 122-239): as above
Experimental: as §1

NGF [4] = biological target: T1, NGF; assay: NGF protomer crosslinking with BS3 (NGF conformation), metal ions; type: biochemical; details: for NGF Protomer Conformation (active/inactive): 100 μM
Experimental: For crosslinking NGF […], 0.4 mM BS^3 was added to the mixture and incubated for 30 minutes at 25° C. […] For CD studies, NGF (50 μg/ml) was dissolved in 50 mM Tris-HCl buffer and spectra recorded using a computer controlled Jasco J-600 spectropolarimeter. Samples were acquired in the absence or presence of Zn^2+ (100 μM) at 22° C. in a 2 mm quartz cell averaged over eight scans. Modification of His residues by DEPC was carried out as previously described, where the molar excess of DEPC added and the extent of reaction was determined by evaluating the loss of binding activity of the modified product.

PC12 cells [5] = assay: NGF-dependent survival of PC12 cells; type: cell-based, rat; details: for Antagonism of NGF-dependent survival: high (1 nM) or low (50 pM) NGF; for Survival @ 50 pM NGF / Survival @ 1 nM NGF: rat, pc12 cells, 100 µM
Experimental: (§2) Effects of divalent ions on NGF mediated survival and toxicity was evaluated using a colorimetric assay for the lysosomal enzyme acid phosphatase to determine cell number (Connolly, D. T., Knight, M. B., Harakas, N. K, Wittwer, A. J. & Feder, J. Determination of the number of endothelial cells in culture using an acid phosphatase assay. Anal. Biochem. 152, 136-140 (1986); Ueda, Y., Walsh, E., Nakanishi H. & Yoshida, K. A. colorometric assay method for the evaluation of neurotrophic activity in vitro. Neurosci. Lett. 165, 203-207 (1994)). […] To evaluate toxicity, the cells were seeded and maintained without NGF in RPMI with 10% heat inactivated donor horse serum and 5% fetal calf serum in the presence of additives. Loss in viable cell number was determined and expressed as a percent of control. NGF rescues PC12 cells from cell death in serum-free medium(Greene, L. A. Nerve growth factor prevents the death and stimulates neuronal differentiation of clonal PC12 pheochromocytoma cells in serum-free medium. J. Cell Biol. 78, 747-755 (1978)). NGF-dependent survival was assessed by harvesting PC12 cells in balanced salt solution followed with washing by 4 cycles of suspension and centrifugation in serum-free RPMI prior to seeding in 96 well plates. After incubation with additives, medium was removed from the wells and cells washed once with 200 μl PBS. Buffer containing 0.1M sodium acetate pH 5.5, 0.1% Triton X-100 and 10 mM p-nitrophenyl phosphate (Sigma 104 phosphatase substrate) was added to each well (100 μl). Plates were incubated at 37° C. for 3 hours. The reaction was stopped by the addition of 10 μl/well of 1N sodium hydroxide and the color development measured at 405 nm using a microplate reader. The relationship between cell number and enzyme activity was linear over the range 1000 to 15,000 cells.
(§3) To explore the ability of other transition metals to influence the biological activities of NGF, a series of cations known to mimic in certain respects the binding of zinc to proteins were tested. […] For this reason these ions were not tested in NGF- dependant growth phenomena. […] As these studies appeared to indicate potentially complex results upon metal ions binding to NGF, a receptor crosslinking system where specific receptor types could be identified was utilized.

PC12 cells [6] = assay: Toxicity to PC12 cells; type: cell-based, rat; details: 100 μM
Experimental: as §2, §3

p75^NTR /TrkA = assay: Receptor crosslinking of 125I-NGF with transition metal ions (receptor selectivity); type: binding
Chain of p75^NTR /TrkA (P01139 122-239): as above
Chain of p75^NTR /TrkA (P07174 30-425 partner): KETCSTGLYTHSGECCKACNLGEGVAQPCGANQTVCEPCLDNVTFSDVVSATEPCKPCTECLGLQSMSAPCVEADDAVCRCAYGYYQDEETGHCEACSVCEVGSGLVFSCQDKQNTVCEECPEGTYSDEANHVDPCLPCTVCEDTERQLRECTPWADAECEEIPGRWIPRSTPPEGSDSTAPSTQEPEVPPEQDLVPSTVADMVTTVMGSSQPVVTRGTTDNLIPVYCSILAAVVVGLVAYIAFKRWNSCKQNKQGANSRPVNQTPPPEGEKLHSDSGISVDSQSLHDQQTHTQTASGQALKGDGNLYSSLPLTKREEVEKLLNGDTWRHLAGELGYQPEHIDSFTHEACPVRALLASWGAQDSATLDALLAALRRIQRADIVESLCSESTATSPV
Chain of p75^NTR /TrkA (P35739 33-799 partner): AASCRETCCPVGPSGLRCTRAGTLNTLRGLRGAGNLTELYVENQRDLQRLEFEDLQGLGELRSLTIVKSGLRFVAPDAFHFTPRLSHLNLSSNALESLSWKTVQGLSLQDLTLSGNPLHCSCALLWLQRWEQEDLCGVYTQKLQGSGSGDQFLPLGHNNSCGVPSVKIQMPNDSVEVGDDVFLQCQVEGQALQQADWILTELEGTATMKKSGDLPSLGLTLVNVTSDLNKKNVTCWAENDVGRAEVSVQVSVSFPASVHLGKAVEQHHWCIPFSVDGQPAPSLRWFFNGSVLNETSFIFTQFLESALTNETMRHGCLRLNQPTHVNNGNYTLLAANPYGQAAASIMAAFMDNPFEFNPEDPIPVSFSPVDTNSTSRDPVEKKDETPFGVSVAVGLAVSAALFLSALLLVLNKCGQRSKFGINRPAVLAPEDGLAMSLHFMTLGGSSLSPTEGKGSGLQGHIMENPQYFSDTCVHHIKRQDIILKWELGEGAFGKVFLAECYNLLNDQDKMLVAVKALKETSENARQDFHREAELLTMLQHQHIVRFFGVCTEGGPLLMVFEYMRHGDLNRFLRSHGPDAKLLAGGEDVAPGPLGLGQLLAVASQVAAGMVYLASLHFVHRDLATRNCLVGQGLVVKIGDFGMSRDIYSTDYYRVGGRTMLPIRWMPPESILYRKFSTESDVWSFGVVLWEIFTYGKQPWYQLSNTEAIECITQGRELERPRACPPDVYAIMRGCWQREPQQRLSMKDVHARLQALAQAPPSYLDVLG
Experimental: as §3

p75 = assay: Affinity cross-linking of 125I-NGF to p75 on PC12 cells; type: binding, rat; details: for Inhibition of p75 Interaction: 200 μM peptide, 0.1 nM 125I-NGF, PC12 cells
Experimental: The ability of the peptides under study to interfere with binding of NGF to NGF receptors was evaluated by analysis of inhibition of the chemical cross-linking of ^251 I-NGF to the common neurotrophin receptor p75 (Chao, J. Neurobiol. 25:1373-1385 (1994)) and the specific NGF receptor TrkA (Barbacid, J. Neurobiol. 25: 1386-1403 (1994)). Immunoprecipitation and polyacrylamide gel electrphoresis of cross linked receptors allowed identification of both receptors, as shown in FIG. 7A. […] At concentrations of 200 μM, neither R11(l) nor R11(m) were able to inhibit greater than 50% of the observed ^125 I-labelling.
The ability of the peptides derived from the 68-58/108-110 region of NGF to antagonize NGF interaction with the p75 and TrkA receptors was determined The peptides tested were bicyclic (BC) 68-58/108-110, cyclic (C) 68-58/108-110, and linear (L) 68-58/108-110, each of which are illustrated in FIGS. 2 and 5D
Receptor cross-linking studies were performed on PC12 rat pheochromocytoma cells (ATCC CRL 1721; Greene et al., Proc. Natl. Acad. Sci. USA 73: 2424-2432 (1976)) which were maintained in RPMI1640 (Gibco) supplemented with 10% fetal calf serum (Gibco). Cells were harvested by incubation and trituration in Ca^2+ and Mg^2+ free Gey's balanced salt solution, washed and suspended in 10 mM HEPES buffer (pH 7.35) containing 125 mM NaCl, 4.8 mM KCl, 1.3 mM CaCl2, […], 1.2 mM KH2 PO4, 1 g/L sucrose and 1 g/L bovine serum albumin (HEPES Krebs Ringer buffer, HKR buffer) at 10^6 cells/mL. Subsequent procedures were carried out at 4° C. unless otherwise noted.
For receptor crosslinking, ^125 I-NGF was prepared by the method of Sutter et al. (J. Biol. Chem. 254: 5972-5982 (1979)) from NGF isolated from mouse submaxillary gland (as described in Mobley et al., Biochemistry 15:1543 (1976)) obtained from Cedarlane.
[…] Control PC12 cells were incubated in HKR buffer in the presence of ^125 I-NGF only (no NGF peptide).
Receptor proteins were cross-linked with either 0.4 mM bis(sulfosuccinimidyl)suberate (BS^3, Pierce) for TrkA, or a combination of 2 mM […] (EDC) and 2 mM N-hydroxysulfosuccinimide (S-NHS) for p75^NTR as indicated. All cross-linking agents (from Pierce) were dissolved in water and added in 20 μL aliquots and the reaction allowed to proceed for 30 min at 25° C. On completion of the cross-linking reaction, the cells were washed three times in HKR buffer with BSA at 4° C. to remove excess free radiolabelled ligand and reagents. The cells were solubilized in 100 μL SDS sample buffer Samples were separated on a modified Laemmli discontinues acrylamide gel system (Laemmli, Nature 227:680 (1970)) using 4% SDS-PAGE stacking gel and a gradient urea polyacrylamide separating gel ranging from 4.5% acrylamide/18% urea to 7.5% acrylamide/48% urea. The gels were fixed and processed for autoradiography using -70° C. exposure with Kodak XAR film and manual processing (FIG. 7B).
For positive receptor identification, immunoprecipitation studies were performed. Samples of 10^7 cells in 1 mL HKR buffer were cross-linked under the conditions described above, washed in HKR buffer and solubilized in non-denaturing lysis buffer (1% NP40, 10% glycerol, 1 mM phenylmethylsulfonylfluoride, 10 μg/mL leupeptin and 0.5 mM o-vanadate in Tris-buffered saline) (Kaplan et al., Nature 350:1 158-160 (1991)). The solutions were clarified by centrifugation and immunoprecipitated with either mAb 192 (monoclonal antibody for p75; Cedarlane) or rabbit anti-TrkA, which had been raised against a COOH-terminal peptide of TrkA. The ^125 I-NGF cross-linked receptor-antibody complexes were isolated using 50 μL of a 50% solution of rabbit anti-mouse agarose (Sigma; for mAb 192) or protein A-Sepharose (Pharmcia; for anti-Trk) equilibrated in lysis buffer. Immunoprecipitates were washed three times in lysis buffer and the pellets denatured in SDS reducing sample buffer. […]

[7] = tested on: dorsal root ganglion (DRG) neurons; assay: NGF-dependent neurite growth of ED8 chick DRG neurons (FIG. 6, Terasaki plates); type: cell-based; details: concentrations up to 200 μM
Experimental: FIG. 6 is a graph showing the ability of R11 to inhibit the activity of NGF in vitro using a biological assay system. […] Dissociated cells enriched for sensory neurons were prepared from embryonic day 8 (ED8) chick dorsal root ganglion (DRG) as described (Sutter et al., J. Biol. Chem. 254: 5972-5982 (1979)). Neurons were seed into wells of Terasaki plates treated sequentially with poly-D-lysine and laminin at a density of 800-1000 cells/well in "synthetic" Dulbecco's modified Eagle medium (Bottenstein et al., Proc. Natl. Acad. Sci. USA 76: 514-517 (1979)) containing 1% fetal calf serum and NGF at […]. The cells were incubated with the additives indicated at 37° C. in a 5% CO2 atmosphere At 18-20 hours, the cells were fixed in 4% formaldehyde in phosphate-buffered saline and scored for neurite growth. The cells on the entire lower horizontal surface of the well were counted using an inverted microscope fitted with phase contrast optics. A neurite was scored if its caliber from origin to terminal was constant and its length was equal to or greater than 1.5 cell body diameters. Neurite growth was corrected for background (no NGF) growth in the presence and absence of peptide.
Such a profile is not typical of a competitive inhibitor. That is, a different dose response profile would be expected if R11 were simply competing with NGF for binding to a receptor. Neither of the less constrained synthetic Intermediates of R11, i.e., R11 (linear) or R11 (monocyclic), was as effective in blocking NGF-dependent neurite growth concentrations up to 200 μM.

Compound	Total Binding to PC12 cells (p75^NTR and TrkA [2]) [% control]	NGF Protomer Conformation (active/inactive) (NGF [4])	Survival @ 50 pM NGF (PC12 cells [5]) [% control]	Survival @ 1 nM NGF (PC12 cells [5]) [% control]	Toxicity (PC12 cell viability) (PC12 cells [6]) [% control]	Blocking of NGF binding to TrkA and p75NTR in receptor crosslinking (p75^NTR /TrkA)	also measured
SR11: identical amino acid composition to R11 except that the eleven N-terminal residues have been inverted to the naturally occurring NGF sequence 58-68 (CRASNPVESGCCVC; disulfide 1-14, 11-12)							Cross-linking of NGF promoters (NGF dimer disruption assay) (NGF [1]): equally etude in reducing crosslinking of NGF promoters as R11
[Cu+2] [Cu^2+]	-16 ± 7	active	-2 ± 19	-6 ± 8	74 ± 10	blocked binding to both receptors	Prevention of 125I-NGF binding to PC12 cells (p75^NTR and TrkA [3]): ability to prevent binding; Antagonism of NGF-dependent survival (PC12 cells [5]): ability to antagonize the NGF-dependant survival
NH2 -Cys-Gly-Ser-Glu-Val-Pro-Asn-Ser-Ala-Arg-Cys-Cys-Val-Cys-OH (H-CGSEVPNSARCCVC-OH; not fully specified; printed as NH2 -Cys-Gly-Ser-Glu-Val-Pro-Asn-Ser-Ala-Arg-Cys-Cys-Val-Cys-OH; cysteine pairing not given here) [R11(l), linear peptide R11]							Inhibition of the observed 125I-labelling (p75) (p75; 200 μM): ≤ 50%; Inhibition of p75 Interaction (p75; listed as L): no inhibition; Blocking of NGF-dependent neurite growth [7]: Neither of the less constrained intermediates R11(l) or R11 (m) were effective
[Mn+2] [Mn^2+]	95 ± 24	inactive	91 ± 5	59 ± 24	82 ± 4	did not have a significant effect	
[Pd+2] [Pd^2+]	-5 ± 1	active	82 ± 9	125 ± 48	75 ± 6	blocked binding to both receptors	Prevention of 125I-NGF binding to PC12 cells (p75^NTR and TrkA [3]): ability to prevent binding
[Pt+2] [Pt^2+]	68 ± 11	active	74 ± 21	92 ± 35	93 ± 6	blocked binding to both receptors	Antagonism of NGF-dependent survival (PC12 cells [5]): ability to antagonize the NGF-dependant survival
CCOC(=O)OC(=O)OCC [DEPC, diethyl-pyrocarbonate, reference compound]							Receptor binding activity of NGF modified with DEPC (p75^NTR and TrkA [2]): loss in receptor binding activity; Protomer crosslinking efficiency of NGF modified with DEPC (NGF [4]; no Zn2+): reduction in protomer crosslinking efficiency
NH2 -Cys-Gly-Ser-Glu-Val-Pro-Asn-Ser-Ala-Arg-Cys-Cys-Val-Cys-OH (H-CGSEVPNSARCCVC-OH; not fully specified; printed as NH2 -Cys-Gly-Ser-Glu-Val-Pro-Asn-Ser-Ala-Arg-Cys-Cys-Val-Cys-OH; cysteine pairing not given here) [R11(m), monocyclic R11 with a single disulfide bond]							Inhibition of p75 Interaction (p75; listed as C): no inhibition
